From the supplement of paper PMC10307832

Columns and labels:
Assay in all cases: relative viability (nuclei count vs DMSO), 5 days (fraction); higher = more cells survive
[1] = compound: CCn1c(-c2nonc2N)nc2cnc(Oc3cccc(NC(=O)c4ccc(OCCN5CCOCC5)cc4)c3)cc21 + Cc1cc(Nc2cc(N3CCN(C)CC3)nc(Sc3ccc(NC(=O)C4CC4)cc3)n2)n[nH]1 [Tozasertib] (partner 0.1 µM)
Method in brief: (§1)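 Values are medians from duplicate plates. Each reflects relative viability, defined as the nuclei count of treated wells over that of vehicle wells. Lung cancer cell lines in 1536-well plates were pin-tool dosed one day after seeding with one drug alone or with a fixed anchor-drug dose plus five library-drug doses (not always all listed) in √10 steps, then fixed, stained and imaged at 4× after 5 days.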

[2] = compound: N=C1NC(=O)/C(=C/c2ccc(O)cc2)S1 [Mirin] + CC(=O)c1c(C)c2cnc(Nc3ccc(N4CCNCC4)cn3)nc2n(C2CCCC2)c1=O [Palbociclib] (partner 0.5 µM)
Method in brief: as §1

[3] = compound: N=C1NC(=O)/C(=C/c2ccc(O)cc2)S1 [Mirin] + Cc1nc(NC(=O)N2CCC[C@H]2C(N)=O)sc1-c1ccnc(C(C)(C)C(F)(F)F)c1 [Alpelisib] (partner 2 µM)
Method in brief: as §1

[4] = compound: N=C1NC(=O)/C(=C/c2ccc(O)cc2)S1 [Mirin] + Nc1ncn([C@H]2C[C@H](O)[C@@H](CO)O2)c(=O)n1 [Decitabine] (partner 2 µM)
Method in brief: as §1

Row | Cell Line | relative viability ([1]; first compound 0.04 µM) | relative viability ([1]; first compound 0.1265 µM) | relative viability ([1]; first compound 0.4 µM) | relative viability ([1]; first compound 1.265 µM) | relative viability ([1]; first compound 4 µM) | relative viability ([2]; first compound 0.25 µM) | relative viability ([2]; first compound 0.7906 µM) | relative viability ([2]; first compound 2.5 µM) | relative viability ([2]; first compound 7.906 µM) | relative viability ([2]; first compound 25 µM) | relative viability ([3]; first compound 0.25 µM) | relative viability ([3]; first compound 0.7906 µM) | relative viability ([3]; first compound 2.5 µM) | relative viability ([3]; first compound 7.906 µM) | relative viability ([3]; first compound 25 µM) | relative viability ([4]; first compound 0.25 µM) | relative viability ([4]; first compound 0.7906 µM) | relative viability ([4]; first compound 2.5 µM) | relative viability ([4]; first compound 7.906 µM) | relative viability ([4]; first compound 25 µM)
1 | COR-L23 | 0.185 | 0.165 | 0.154 | 0.12 | 0.135 | 0.369 | 0.299 | 0.245 | 0.268 | 0.341 | 0.847 | 0.822 | 0.758 | 0.715 | 0.682 | 0.447 | 0.505 | 0.466 | 0.426 | 0.409
2 | NCI-H1993 | 0.634 | 0.705 | 0.502 | 0.501 | 0.455 | 0.614 | 0.281 | 0.586 | 0.524 | 0.543 | 0.663 | 0.779 | 0.681 | 0.65 | 0.674 | 0.656 | 0.46 | 0.663 | 0.525 | 0.551
3 | NCI-H3122 | 0.501 | 0.395 | 0.385 | 0.332 | 0.325 | 0.192 | 0.197 | 0.199 | 0.166 | 0.165 | 0.715 | 0.823 | 0.729 | 0.923 | 0.821 | 0.41 | 0.431 | 0.432 | 0.372 | 0.353
4 | NCI-H1944 | 0.248 | 0.279 | 0.273 | 0.228 | 0.213 | 0.315 | 0.325 | 0.328 | 0.287 | 0.226 | 0.834 | – | 0.813 | 0.718 | 0.52 | 0.426 | 0.471 | 0.489 | 0.425 | 0.436
5 | NCI-H358 | 0.0993 | 0.102 | 0.116 | 0.0599 | 0.0812 | 0.127 | 0.145 | 0.148 | 0.139 | 0.199 | 0.822 | 0.876 | 0.943 | 0.723 | 0.461 | 0.238 | 0.194 | 0.242 | 0.169 | 0.177
6 | NCI-H1734 | 0.223 | 0.264 | 0.234 | 0.179 | 0.212 | 0.349 | 0.364 | 0.356 | 0.32 | 0.344 | 0.67 | 0.651 | 0.684 | 0.656 | 0.584 | 0.479 | 0.493 | 0.565 | 0.491 | 0.419
7 | A-427 | 0.189 | 0.234 | 0.228 | 0.182 | 0.186 | 0.494 | 0.5 | 0.552 | 0.516 | 0.504 | 1.2 | – | 1.15 | 1.1 | 1.14 | 0.554 | 0.479 | 0.546 | 0.521 | 0.514
8 | SK-LU-1 | 0.402 | 0.371 | 0.29 | 0.238 | 0.218 | 0.433 | 0.393 | 0.417 | 0.348 | 0.405 | 1.12 | 0.885 | 1.07 | 0.698 | 0.53 | 0.713 | 0.618 | 0.8 | 0.494 | 0.509
9 | NCI-H838 | 0.259 | 0.277 | 0.237 | 0.196 | 0.174 | 0.25 | 0.232 | 0.232 | 0.234 | 0.236 | 0.966 | 1 | 0.961 | 1.03 | 0.965 | 0.432 | 0.424 | 0.517 | 0.424 | 0.361
10 | LCLC-97TM1 | 0.201 | 0.271 | 0.192 | 0.249 | 0.222 | 0.227 | 0.236 | 0.192 | 0.152 | 0.198 | 0.253 | 0.31 | 0.197 | 0.18 | 0.129 | 0.239 | 0.224 | 0.228 | 0.179 | 0.197
11 | BEN | 0.453 | 0.415 | 0.518 | 0.494 | 0.357 | 0.485 | 0.468 | 0.423 | 0.424 | 0.426 | 1.03 | 1.08 | 1.09 | 0.973 | 0.467 | 0.553 | 0.711 | 0.661 | 0.67 | 0.522
12 | NCI-H2023 | 0.363 | 0.334 | 0.277 | 0.16 | 0.136 | 0.386 | 0.368 | 0.409 | 0.349 | 0.315 | 0.588 | 0.594 | 0.616 | 0.616 | 0.555 | 0.237 | 0.238 | 0.216 | 0.228 | 0.225
13 | LC-2-ad | 0.517 | 0.365 | 0.418 | 0.294 | 0.328 | 0.543 | 0.456 | 0.474 | 0.505 | 0.483 | 0.865 | 0.926 | 0.98 | 0.821 | 0.726 | 0.843 | 0.814 | 0.743 | 0.78 | 0.921
14 | ABC-1 | 0.137 | 0.153 | 0.156 | 0.209 | 0.176 | 0.548 | 0.693 | 0.573 | 0.728 | 0.482 | 1.34 | 1.14 | 1.09 | 1.1 | 0.633 | 1.09 | 0.898 | 1.16 | 0.883 | 0.715
15 | NCI-H650 | 1.01 | 0.639 | 0.41 | 0.283 | 0.271 | 0.306 | 0.399 | 0.333 | 0.265 | 0.38 | 1.04 | – | 1.09 | – | 1.1 | 0.32 | 0.335 | 0.306 | 0.294 | 0.354
16 | NCI-H1755 | 0.527 | 0.58 | 0.534 | 0.416 | 0.349 | 0.469 | 0.449 | 0.403 | 0.478 | 0.532 | 0.926 | 0.947 | 0.976 | 0.947 | 0.876 | 0.725 | 0.775 | 0.703 | 0.717 | 0.752
